Measurements taken from patent publication US7351721B2, “Amino acid derivatives and pharmaceutical composition comprising, as active ingredients, them” (Ono Pharmaceutical Co., Ltd., priority 1999, dated 2008).

Biological target: T1, N-type calcium channel (Homo sapiens, UniProt Q00975)
T1 construct: endogenous in cells
Test: Determination of inhibitory activity on N-type calcium channel (Fura-2 fluorescence, KCl depolarization, with nifedipine)
Format: cell-based
Settings: compound at final concentration of 3 μM; depolarized with 80 mM potassium chloride; in presence of nifedipine; read-out: Inhibitory effect on calcium flow (%)
Description: Determination of Inhibitory Activity on N-type Calcium Channel
Cell line was differentiated according to the method described in FEBS Letters, 235, 178-182, 1988. The cell was loaded with fluorescent reagent, Fura-2·AM (at the final concentration of 10 μM), at 37° C. for 30 minutes and suspended in Krebs-buffer containing HEPES (25 mM) to obtain the cell suspension. The obtained cell suspension was incubated in the presence or absence of the compounds of the present invention with nifedipine for 5 minutes. The cell was depolarized by adding potassium chloride solution (at the final concentration of 80 mM) thereto and then a fluorescence intensity at the emission wavelength of 500 nm excited by the UV of 340 nm and 380 nm alternately was measured using the intracellular calcium analyzer (Nippon Bunko Co., CAF-110). The inhibitory activity of the compound of the present invention (at the final concentration of 3 μM) on calcium influx into the cell was calculated from the difference in changing the fluorescence intensity at peak (ΔR) according to the following equation.

T1 sequence (Q00975 whole entry): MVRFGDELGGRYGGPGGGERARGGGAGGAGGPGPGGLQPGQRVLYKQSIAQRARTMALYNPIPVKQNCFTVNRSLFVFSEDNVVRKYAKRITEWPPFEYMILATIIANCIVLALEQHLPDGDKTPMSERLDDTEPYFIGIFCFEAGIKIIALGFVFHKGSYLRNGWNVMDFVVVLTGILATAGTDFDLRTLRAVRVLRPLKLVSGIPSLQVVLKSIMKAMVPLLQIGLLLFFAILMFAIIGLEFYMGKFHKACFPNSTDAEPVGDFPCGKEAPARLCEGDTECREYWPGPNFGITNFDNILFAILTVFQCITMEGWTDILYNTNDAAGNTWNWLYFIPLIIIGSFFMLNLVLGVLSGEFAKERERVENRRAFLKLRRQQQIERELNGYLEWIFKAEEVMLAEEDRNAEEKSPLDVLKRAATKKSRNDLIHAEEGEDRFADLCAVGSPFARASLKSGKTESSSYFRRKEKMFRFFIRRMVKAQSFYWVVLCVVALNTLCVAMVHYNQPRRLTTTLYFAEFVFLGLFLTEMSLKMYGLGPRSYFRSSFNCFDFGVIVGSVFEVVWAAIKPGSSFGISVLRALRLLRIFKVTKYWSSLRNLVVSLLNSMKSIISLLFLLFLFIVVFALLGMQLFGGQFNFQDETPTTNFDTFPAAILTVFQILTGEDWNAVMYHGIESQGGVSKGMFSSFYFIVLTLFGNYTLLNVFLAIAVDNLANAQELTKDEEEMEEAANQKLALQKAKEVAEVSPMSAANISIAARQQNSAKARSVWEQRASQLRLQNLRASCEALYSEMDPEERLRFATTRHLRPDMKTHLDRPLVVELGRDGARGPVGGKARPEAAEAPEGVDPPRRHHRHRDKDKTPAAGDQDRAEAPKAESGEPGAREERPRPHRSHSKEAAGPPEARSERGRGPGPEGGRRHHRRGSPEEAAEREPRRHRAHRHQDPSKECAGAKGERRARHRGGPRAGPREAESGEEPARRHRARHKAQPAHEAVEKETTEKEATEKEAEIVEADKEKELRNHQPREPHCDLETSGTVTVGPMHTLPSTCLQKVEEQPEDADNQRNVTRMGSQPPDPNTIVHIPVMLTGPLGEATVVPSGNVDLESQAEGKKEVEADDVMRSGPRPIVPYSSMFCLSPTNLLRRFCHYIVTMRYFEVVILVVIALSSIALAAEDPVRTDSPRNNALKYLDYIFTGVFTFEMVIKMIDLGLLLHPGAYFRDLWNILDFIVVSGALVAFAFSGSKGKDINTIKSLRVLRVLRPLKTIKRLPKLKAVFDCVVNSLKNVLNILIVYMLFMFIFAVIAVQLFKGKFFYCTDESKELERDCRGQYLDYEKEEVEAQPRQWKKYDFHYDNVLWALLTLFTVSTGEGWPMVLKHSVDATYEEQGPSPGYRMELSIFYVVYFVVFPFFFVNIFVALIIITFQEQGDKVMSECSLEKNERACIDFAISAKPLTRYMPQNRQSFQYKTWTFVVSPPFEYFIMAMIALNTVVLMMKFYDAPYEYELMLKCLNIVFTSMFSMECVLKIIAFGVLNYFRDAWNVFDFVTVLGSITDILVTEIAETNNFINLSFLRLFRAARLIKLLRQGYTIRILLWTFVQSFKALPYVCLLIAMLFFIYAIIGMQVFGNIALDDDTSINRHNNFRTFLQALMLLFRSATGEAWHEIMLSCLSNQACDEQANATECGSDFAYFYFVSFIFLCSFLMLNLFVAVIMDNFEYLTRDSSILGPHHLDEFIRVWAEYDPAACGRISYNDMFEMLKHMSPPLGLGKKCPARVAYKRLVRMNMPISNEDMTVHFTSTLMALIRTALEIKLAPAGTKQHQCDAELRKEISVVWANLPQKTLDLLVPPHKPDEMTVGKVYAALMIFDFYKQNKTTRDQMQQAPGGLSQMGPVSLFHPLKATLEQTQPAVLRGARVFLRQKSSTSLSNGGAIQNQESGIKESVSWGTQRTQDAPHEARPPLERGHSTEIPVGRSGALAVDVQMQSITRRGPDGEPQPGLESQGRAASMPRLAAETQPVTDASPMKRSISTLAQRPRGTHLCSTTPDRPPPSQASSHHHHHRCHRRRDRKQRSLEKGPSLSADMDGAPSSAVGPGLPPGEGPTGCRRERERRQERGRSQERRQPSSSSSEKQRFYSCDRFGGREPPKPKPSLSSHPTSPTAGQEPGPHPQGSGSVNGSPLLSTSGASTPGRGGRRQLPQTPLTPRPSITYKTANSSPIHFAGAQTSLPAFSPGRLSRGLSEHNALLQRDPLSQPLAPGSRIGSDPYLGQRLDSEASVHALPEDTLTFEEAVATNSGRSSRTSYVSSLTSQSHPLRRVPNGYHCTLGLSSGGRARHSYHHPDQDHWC

## CC(C)(C)OC(=O)N1CSC[C@H]1C(=O)N[C@@H](CSCC1CCCCC1)C(=O)NC1CCN(Cc2ccccc2)CC1 [compound 2, (2R)-N-(1-benzylpiperidin-4-yl)-3-cyclohexylmethylthio-2-((4R)-3-t-butoxycarbonylthiazolidin-4-ylcarbonylamino)propanamide]
  inhibition at 3 µM: 95%
